Consider 3 molecules from patent publication US9849194B2, “Compositions and methods for imaging and treatment” (New York University, priority 2014, dated 2017).

For data set [1], the system named is HCT116 cells. Nature of the data set: cells. The following applies: Homo sapiens, HCT-116, 48 h.
Protocol: In order to determine the effectiveness of our nanoparticle system, we conducted a cancer cell viability study on our nanoparticle-drug system and compared it to effectiveness of the free drug (without the NP system). The Promega CellTiter-Blue® Cell Viability Assay was used. The drug, in one condition, and the Drug-NP complex, in another, were incubated with HCT-116 colon cancer cells for 48 hours. Different concentrations of the drug were used (ranging from 0 nM to 500 nM). After the designated incubation time, the IC50—the concentration of the drug needed to inhibit 50% of the cancer cells incubated—was then measured for both conditions.
The subject of data set [2] is HCT116 cells. Put plainly: In vitro cytotoxicity assay, CellTiter-Blue. The class given is cell-based, human. The procedure:
In vitro cytotoxicity assay. Cell viability was evaluated using the Promega CellTiter-Blue® Cell Viability assay. It uses the indicator dye resazurin to measure the metabolic capacity of cells—an indicator of cell viability. Viable cells retain the ability to reduce resazurin into resorufin, which is highly fluorescent. […] HCT116 cells were seeded at a density of 5×10^4 cells per well in 96-well flat-bottom plates and incubated in 10% FBS-medium for 24 hours. […] After 24 hours incubation, cells were washed with phosphate buffered saline (PBS, Amresco Biotechnolgy grade) and incubated with 20 μL of CellTiter-Blue® Reagent for additional 6 hours at 37° C. The fluorescence corresponding to the resorufin (which reflects the relative viable cell number) was measured at 590 nm using a Synergy H1 Hybrid Reader Biotek. The measurement was performed on untreated cells as a blank control.

The test system of data set [3] is HeLa cells. Nature of the data set: In vitro cellular uptake in HeLa cells (fluorescence microscopy). The class given is cell-based.
In data set [4] the test system is HeLa cells. Nature of the data set: In vitro hyperthermia treatment, HeLa cell viability. The data set is classed as cell-based. The following applies: 2 hours incubation, with or without hyperthermia treatments. The procedure:
Cell viability tests in presence and in absence of AMF were performed in order to evaluate the effect of combined treatments (hyperthermia and chemotherapy) on HeLa cell viability (FIG. 31). Hela cells were incubated for two hours with no additives, Dox, CB[7]NPs or Dox-CB[7]NPs. Selected samples were then subjected to an alternating magnetic field (464 kHz) for one hour. […] The lack of significant cytotoxicity in the cells incubated with Dox or CB[7]NPs is consistent with the limited cellular uptake of the free drug or the lack of toxicity of the nanocarrier respectively.
In vitro hyperthermia treatment. Viability tests on HeLa cells were performed to investigate the combined effect of both hyperthermia and chemotherapy treatment. Petri-dishes were seeded with HeLa cells (˜50000 cells/mL) and incubated at 37° C. After 24 hours, DMEM was removed, replaced with the following solutions: DMEM (control), Dox ([Dox]=76 μM) and Dox-CB[7]NPs ([Dox]=76 μM, [Iron]=0.04 M) and incubated for 2 hours. […] Two cell viability readings were taken, immediately after hyperthermia treatment and 18 hours after hyperthermia. For cell viability studies 200 μL of CTB per 1 mL of DMEM was added to each petri-dish and incubated for 6 hours after which the medium with CTB was transferred to 96 well plate to take the fluorescence reading.

In data set [5] the test system is HeLa cells. Put plainly: Morphology of HeLa cells after hyperthermia and chemotherapy. Conditions: one-hour hyperthermia, confocal microscopy. The class given is cell-based. The procedure:
Morphology of the cells after hyperthermia and chemotherapy. To assess changes in cell morphology, HeLa cells (˜50000 cells/mL) were cultured in petri-dishes and incubated at 37° C. After 24 hours, DMEM was removed, replaced with the following solutions: DMEM (control), Dox ([Dox]=76 μM) and Dox-CB[7]NPs ([Dox]=76 μM, [Iron]=0.04 M) and incubated for 2 hours. After the treatment, the cells were washed with PBS 3 times and 1 mL of DMEM was added. One petri-dish from each condition was subjected to one hour of magnetic hyperthermia (frequency=464 kHz, current=26.8 kAm^−1) while other petri-dishes were used as control.
After magnetic hyperthermia treatment, DMEM was removed, the cells were washed with PBS three times and 1 ml of prepared formaldehyde solution (Vformaldehyde=1 mL, Vdistilled water=9 mL) was added to the cells for […] to fix them. After removal of formaldehyde solution the cells were allowed to dry at room temperature for 48 hours in a dark place to prevent photodegradation of Dox. Confocal microscopy used observe changes in the morphology of treated cells compared to control cells.

Regarding `CC(=O)O[C@H]1C(=O)[C@@]2(C)[C@H]([C@H](OC(=O)c3ccccc3)[C@]3(O)C[C@H](OC(=O)[C@H](O)[C@@H](NC(=O)c4ccccc4)c4ccccc4)C(C)=C1C3(C)C)[C@]1(OC(C)=O)CO[C@@H]1C[C@@H]2O` [Paclitaxel], the IC50 in data set [1] was 71 nM.
cucurbit[7]uril [CB[7]]: the cytotoxic effects result in data set [2] (24 hours of incubation, concentrations as high as 100 μM) is “Neither CB[7] nor CB[7]NPs displayed cytotoxic effects”; in data set [2] (CB[7] concentrations of 1 to 100 μM, 24 hour incubation) it was “neither CB[7] nor CB[7]NPs elicit cytotoxic effects”.
On to `COc1cccc2c1C(=O)c1c(O)c3c(c(O)c1C2=O)C[C@@](O)(C(=O)CO)C[C@@H]3O[C@H]1C[C@H](N)[C@H](O)[C@H](C)O1` [Dox, Doxorubicin], for which the “fluorescence of treated cells” value in data set [3] (2 hours, [DOX]=10 μM) was “weakly fluorescent”. In data set [3] (3 hours at 37° C., same dose of Dox, excitation at 488 nm), the “normalized fluorescence intensity relative to red emission of Dox-CB[7]NPs” value came to 40%. The reduction in viability entry in data set [4] is given as “Minimal reductions in viability”. Also, the “cell morphology after hyperthermia session” value in data set [5] was “normal morphology”.
